Data reported in PubChem BioAssay (NCI).
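All cell lines were grown in 96-well plates and treated with compound for 48 hours. TGI marks complete inhibition of growth.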

Experiments:
Test in all cases: inhibition of tumour cell growth, NCI panel, 48 h
786-0 renal = test system: 786-0 renal
A549 NSCLC = test system: A549 NSCLC
ACHN renal = test system: ACHN renal
COLO 205 colon = test system: COLO 205 colon
DMS 114 small cell lung = test system: DMS 114 small cell lung
EKVX NSCLC = test system: EKVX NSCLC
HCC-2998 colon = test system: HCC-2998 colon
HCT-116 colon = test system: HCT-116 colon
HCT-15 colon = test system: HCT-15 colon
HOP-92 NSCLC = test system: HOP-92 NSCLC
HT29 colon = test system: HT29 colon
IGROV1 ovarian = test system: IGROV1 ovarian
K-562 leukemia = test system: K-562 leukemia
KM12 colon = test system: KM12 colon
KM20L2 colon = test system: KM20L2 colon
LXFL 529 NSCLC = test system: LXFL 529 NSCLC
M19-MEL melanoma = test system: M19-MEL melanoma
MALME-3M melanoma = test system: MALME-3M melanoma
MOLT-4 leukemia = test system: MOLT-4 leukemia
NCI-H226 lung = test system: NCI-H226 lung
NCI-H23 lung = test system: NCI-H23 lung
OVCAR-3 ovarian = test system: OVCAR-3 ovarian
OVCAR-5 ovarian = test system: OVCAR-5 ovarian
OVCAR-8 ovarian = test system: OVCAR-8 ovarian
RPMI-8226 leukemia = test system: RPMI-8226 leukemia
RXF 393 renal = test system: RXF 393 renal
SF-268 CNS = test system: SF-268 CNS
SF-295 CNS = test system: SF-295 CNS
SF-539 CNS = test system: SF-539 CNS
SK-MEL-2 melanoma = test system: SK-MEL-2 melanoma
SK-MEL-28 melanoma = test system: SK-MEL-28 melanoma
SK-MEL-5 melanoma = test system: SK-MEL-5 melanoma
SK-OV-3 ovarian = test system: SK-OV-3 ovarian
SN12C renal = test system: SN12C renal
SNB-19 CNS = test system: SNB-19 CNS
SNB-75 CNS = test system: SNB-75 CNS
SNB-78 CNS = test system: SNB-78 CNS
SR leukemia = test system: SR leukemia
SW-620 colon = test system: SW-620 colon
TK-10 renal = test system: TK-10 renal
U251 CNS = test system: U251 CNS
UACC-257 melanoma = test system: UACC-257 melanoma
UACC-62 melanoma = test system: UACC-62 melanoma
UO-31 renal = test system: UO-31 renal
A498 renal = test system: A498 renal
CAKI-1 renal = test system: CAKI-1 renal
CCRF-CEM leukemia = test system: CCRF-CEM leukemia
DLD-1 colon = test system: DLD-1 colon
DMS 273 small cell lung = test system: DMS 273 small cell lung
HL-60(TB) leukemia = test system: HL-60(TB) leukemia
NCI-H460 lung = test system: NCI-H460 lung
NCI-H522 lung = test system: NCI-H522 lung
HOP-18 NSCLC = test system: HOP-18 NSCLC
HOP-62 NSCLC = test system: HOP-62 NSCLC
LOX IMVI melanoma = test system: LOX IMVI melanoma
M14 melanoma = test system: M14 melanoma
OVCAR-4 ovarian = test system: OVCAR-4 ovarian

Measured: TGI

Cn1c(=O)c2nc3c4ccccc4c(=O)n(C)c3nc2n(C)c1=O
not listed: A498 renal | CAKI-1 renal | CCRF-CEM leukemia | DLD-1 colon | DMS 273 small cell lung | HL-60(TB) leukemia | NCI-H460 lung | NCI-H522 lung | HOP-18 NSCLC | HOP-62 NSCLC | LOX IMVI melanoma | M14 melanoma | OVCAR-4 ovarian
> 100 µM: all other assays above

ClCCC[Si]12OCCN(CCO1)CCO2
not listed: HCT-15 colon | KM20L2 colon | HOP-18 NSCLC | HOP-62 NSCLC | LOX IMVI melanoma | M14 melanoma | OVCAR-4 ovarian
> 100 µM: all other assays above

COc1cc2cccc(N=Cc3ccccc3Cl)c2cc1OC
not listed: A498 renal | DMS 273 small cell lung
> 100 µM: all other assays above

O=c1[nH]cnc2c(COCCCO)c[nH]c12
not listed: HCC-2998 colon | NCI-H226 lung | SF-539 CNS | A498 renal | DMS 273 small cell lung | NCI-H460 lung | OVCAR-4 ovarian
> 100 µM: all other assays above

CCN=C1Nc2ccccc2-n2c(nn3nc4ccccc4c23)N1CC
not listed: HCC-2998 colon | MALME-3M melanoma | OVCAR-3 ovarian | SK-MEL-2 melanoma | SK-OV-3 ovarian | SNB-78 CNS | TK-10 renal | UO-31 renal | CAKI-1 renal
> 100 µM: all other assays above
